# Assay results taken from PubChem BioAssay AID1963826 (Molecular Pharmacology Branch, DTP, NCI, 2024).
# Several values for one entry are separate records, joined by “and”; a condition that tells them apart may be missing. Identical values can stand only once.
# Tested on: 926638-142-R-J1-PDC complex spheroid viability
# Test: Anticancer human tumor 926638-142-R-J1-PDC patient-derived endometrial carcinoma cell line growth inhibition [POLQ]
# Settings: for viability, T/C: stronger effect = lower value
# Protocol: Multicellular complex tumor spheroid response to Polymerase (POL) inhibitors (novobiocin, ART-558, RP6685) in combination with a variety of drugs and investigational agents in selected tumor cell lines
# The POL inhibitors (novobiocin, ART-558, and RP6685) were evaluated both individually and in combination with standard of care and investigational anticancer small molecules within a complex spheroid model of solid tumors. . Complex spheroids include a stromal component modeled by human endothelial cells (HUVEC) and fibroblasts modeled by human mesenchymal stem cells (MSCs). The concentration ranges selected for each drug and investigational agent were based upon clinically achievable concentrations if the clinical Cmax of the agent was known.
# Compounds. The drugs and investigational agents: novobiocin (NSC847541), ART-558 (NSC835418), RP-6685 (NSC848927), peposertib (NSC802822), ceralasertib (NSC780249), elimusertib (NSC800525), camonsertib (NSC841442), AZD-1390 (NSC803789), olaparib (NSC753686), talazoparib (NSC767125), rucaparib (NSC756644), sotorasib (NSC818433), MRTX-1133 (NSC836407), SN-38 (NSC673596), topotecan (NSC609699), epotoside (NSC141540), doxorubicin (NSC123127), gemcitabine (NSC613327), 5-fluorouracil (NSC19893), paclitaxel (NSC125973), vemurafenib (NSC761431), MSA-2 (NSC828583), SN-011 (NSC837082), adavosertib (NSC754352), prexasertib (NSC758257), carboplatin (NSC241240) and oxaliplatin (NSC266046), were obtained from the National Cancer Institute (NCI) Developmental Therapeutics Program Chemical Repository (21). The FDA-approved anticancer drug set is available from the Developmental Therapeutics Program at https://dtp.cancer.gov/organization/dscb/obtaining/. […] The stock solutions were prepared in dimethyl sulfoxide (DMSO, Sigma-Aldrich, St. Louis, MO, cat. D2650), except for the platinum compounds which were prepared in saline (Quality Biological, Gaithersburg, MD, cat. 114-055-101), at 800-fold the tested concentration and stored at -70 degrees C prior to their use. All drugs and investigational agents were tested over a range starting from a high concentration at or near the clinical Cmax and decreasing in half-log increments. If the clinical Cmax for an agent had not been determined, the highest concentration tested was 10 microM, except for SN-38, which was tested at a high concentration of 1 microM.
# Cell Culture. All cells were maintained in an incubator at 37 degrees C and 5% CO2 with 95% humidity. The PDC lines were cultured according to standard operating procedures established by the NCI PDMR (https://pdmr.cancer.gov). Table 3 of the manuscript, lists the cell lines along with the number of the three cell types plated to form the mct-spheroids and media for tumor cell growth. After thawing, all PDC lines, except 997537-175-T-J1-PDC and 415267-285-R-J2-PDC, were cultured in Matrigel-coated flasks prepared with a working solution of 1X Ham's F-12 nutrient mix, without supplementation (Thermo Fisher Scientific, cat. 11765054), 100 U/mL penicillin-streptomycin (Thermo Fisher Scientific, cat. 15140122), and 2.5% Matrigel (Corning Inc., Corning, NY, cat. 354248) for the first three passages. The two PDC lines 997537-175-T-J1-PDC and 415267-285-R-J2-PDC were cultured on uncoated flasks. The 857933-349-R-J2-PDC line was cultured in 6C/Colon 1B media containing advanced DMEM/F-12 (Thermo Fisher Scientific, cat. 12634028), 10 mM HEPES (Thermo Fisher Scientific, cat. 15630080), 1X GlutaMAX supplement (Thermo Fisher Scientific, cat. 35050061), 0.1 mg/mL primocin (InvivoGen, San Diego, CA, cat. ant-pm-2), 10% defined fetal bovine serum, heat inactivated (HyClone Laboratories Inc., Logan, UT, cat. SH30070.03HI), 50% L-WRN conditioned media (ATCC, cat. CRL-3276), 1.25 mM N-Acetyl-L-cysteine (Sigma-Aldrich, cat. A9165), 10 mM nicotinamide (Sigma-Aldrich, cat. N0636), 1X B-27 supplement (Thermo Fisher Scientific, cat. 17504044), 1X N-2 supplement (Thermo Fisher Scientific, cat. […]
# [1] = curve of first compound, second compound 0.0316 µM
# [2] = curve of first compound, second compound 0.1 µM
# [3] = curve of first compound, second compound 0.316 µM
# [4] = curve of first compound, second compound 1 µM
# [5] = curve of first compound, second compound 3.16 µM
# [6] = curve of first compound, second compound 10 µM
# [7] = second compound 0.0316 µM, first compound 0.0316 µM
# [8] = second compound 0.0316 µM, first compound 0.1 µM
# [9] = second compound 0.0316 µM, first compound 0.316 µM
# [10] = second compound 0.0316 µM, first compound 1 µM
# [11] = second compound 0.0316 µM, first compound 3.16 µM
# [12] = second compound 0.0316 µM, first compound 10 µM
# [13] = second compound 0.1 µM, first compound 0.0316 µM
# [14] = second compound 0.1 µM, first compound 0.1 µM
# [15] = second compound 0.1 µM, first compound 0.316 µM
# [16] = second compound 0.1 µM, first compound 1 µM
# [17] = second compound 0.1 µM, first compound 3.16 µM
# [18] = second compound 0.1 µM, first compound 10 µM
# [19] = second compound 0.316 µM, first compound 0.0316 µM
# [20] = second compound 0.316 µM, first compound 0.1 µM
# [21] = second compound 0.316 µM, first compound 0.316 µM
# [22] = second compound 0.316 µM, first compound 1 µM
# [23] = second compound 0.316 µM, first compound 3.16 µM
# [24] = second compound 0.316 µM, first compound 10 µM
# [25] = second compound 1 µM, first compound 0.0316 µM
# [26] = second compound 1 µM, first compound 0.1 µM
# [27] = second compound 1 µM, first compound 0.316 µM
# [28] = second compound 1 µM, first compound 1 µM
# [29] = second compound 1 µM, first compound 3.16 µM
# [30] = second compound 1 µM, first compound 10 µM
# [31] = second compound 3.16 µM, first compound 0.0316 µM
# [32] = second compound 3.16 µM, first compound 0.1 µM
# [33] = second compound 3.16 µM, first compound 0.316 µM
# [34] = second compound 3.16 µM, first compound 1 µM
# [35] = second compound 3.16 µM, first compound 3.16 µM
# [36] = second compound 3.16 µM, first compound 10 µM
# [37] = second compound 10 µM, first compound 0.0316 µM
# [38] = second compound 10 µM, first compound 0.1 µM
# [39] = second compound 10 µM, first compound 0.316 µM
# [40] = second compound 10 µM, first compound 1 µM
# [41] = second compound 10 µM, first compound 3.16 µM
# [42] = second compound 10 µM, first compound 10 µM
# 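Also: spheroids exposed to drugs for one week before readout.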
# 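For viability, T/C in this document: percent viability relative to DMSO vehicle control wells set as 100%.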
compound,measurement,setting,value
COc1cc2cc(C(=O)CCC(=O)O)sc2cc1OC + Cc1cccc(N(C)C(=O)C2C(O)CCN2c2nc(C)cc(C(F)(F)F)c2C#N)c1,IC50,[1],> 10 µM
same,IC50,[2],> 10 µM
same,IC50,[3],> 10 µM
same,IC50,[4],> 10 µM
same,IC50,[5],> 10 µM
same,IC50,[6],> 10 µM
same,"viability, T/C",[7],101%
same,"viability, T/C",[8],92.9%
same,"viability, T/C",[9],110%
same,"viability, T/C",[10],96.2%
same,"viability, T/C",[11],98.3%
same,"viability, T/C",[12],77.4%
same,"viability, T/C",[13],104%
same,"viability, T/C",[14],98.4%
same,"viability, T/C",[15],99.7%
same,"viability, T/C",[16],87.1%
same,"viability, T/C",[17],83.2%
same,"viability, T/C",[18],80.3%
same,"viability, T/C",[19],119%
same,"viability, T/C",[20],115%
same,"viability, T/C",[21],109%
same,"viability, T/C",[22],84.4%
same,"viability, T/C",[23],98.2%
same,"viability, T/C",[24],88.7%
same,"viability, T/C",[25],99.8%
same,"viability, T/C",[26],111%
same,"viability, T/C",[27],76.9%
same,"viability, T/C",[28],85.8%
same,"viability, T/C",[29],94%
same,"viability, T/C",[30],90.1%
same,"viability, T/C",[31],79.5%
same,"viability, T/C",[32],95.5%
same,"viability, T/C",[33],99.5%
same,"viability, T/C",[34],76.5%
same,"viability, T/C",[35],110%
same,"viability, T/C",[36],94.6%
same,"viability, T/C",[37],79.5%
same,"viability, T/C",[38],95.7%
same,"viability, T/C",[39],94.5%
same,"viability, T/C",[40],87.2%
same,"viability, T/C",[41],104%
same,"viability, T/C",[42],79.9%
COc1cc2cc(C(=O)CCC(=O)O)sc2cc1OC + COC1C(OC(N)=O)C(O)C(Oc2ccc3c(O)c(NC(=O)c4ccc(O)c(CC=C(C)C)c4)c(=O)oc3c2C)OC1(C)C,IC50,[1],> 10 µM
same,IC50,[2],> 10 µM
same,IC50,[3],> 10 µM
same,IC50,[4],> 10 µM
same,IC50,[5],> 10 µM
same,IC50,[6],> 10 µM
same,"viability, T/C",[7],93.6%
same,"viability, T/C",[8],98.3%
same,"viability, T/C",[9],87.9%
same,"viability, T/C",[10],106%
same,"viability, T/C",[11],99.6%
same,"viability, T/C",[12],104%
same,"viability, T/C",[13],85.9%
same,"viability, T/C",[14],97.5%
same,"viability, T/C",[15],98.2%
same,"viability, T/C",[16],86.4%
same,"viability, T/C",[17],94.3%
same,"viability, T/C",[18],101%
same,"viability, T/C",[19],105%
same,"viability, T/C",[20],113%
same,"viability, T/C",[21],88.1%
same,"viability, T/C",[22],110%
same,"viability, T/C",[23],91.6%
same,"viability, T/C",[24],110%
same,"viability, T/C",[25],86.7%
same,"viability, T/C",[26],93%
same,"viability, T/C",[27],94.5%
same,"viability, T/C",[28],97.9%
same,"viability, T/C",[29],97.7%
same,"viability, T/C",[30],111%
same,"viability, T/C",[31],99.2%
same,"viability, T/C",[32],101%
same,"viability, T/C",[33],103%
same,"viability, T/C",[34],89.3%
same,"viability, T/C",[35],81.1%
same,"viability, T/C",[36],75.1%
same,"viability, T/C",[37],98.4%
same,"viability, T/C",[38],109%
same,"viability, T/C",[39],102%
same,"viability, T/C",[40],106%
same,"viability, T/C",[41],81.1%
same,"viability, T/C",[42],99.7%
O=C(Nc1ccc(O)c(NS(=O)(=O)c2ccc(F)cc2)c1)c1ccc(-c2ccccc2)cc1,"viability, T/C",compound 0.0316 µM,102% and 99.8% and 82.6%
same,"viability, T/C",compound 0.1 µM,96.1% and 93.2% and 102%
same,"viability, T/C",compound 0.316 µM,94.9% and 98.2% and 96%
same,"viability, T/C",compound 1 µM,100% and 98.5% and 103%
same,"viability, T/C",compound 3.16 µM,78.1% and 104% and 105%
same,"viability, T/C",compound 10 µM,59.8% and 65.5% and 79.2%
same,IC50,curve of compound,> 10 µM
CC(C)n1c(=O)n(C)c2cnc3cc(F)c(-c4ccc(OCCCN5CCCCC5)nc4)cc3c21,"viability, T/C",compound 0.0316 µM,98.1% and 96.9% and 85.4%
same,"viability, T/C",compound 0.1 µM,99.6% and 92.2% and 101%
same,"viability, T/C",compound 0.316 µM,78.3% and 94.7% and 126%
same,"viability, T/C",compound 1 µM,101% and 93.6% and 113%
same,"viability, T/C",compound 3.16 µM,89.7% and 80.9% and 94.1%
same,"viability, T/C",compound 10 µM,51.1% and 73.2% and 92.8%
same,IC50,curve of compound,> 10 µM
COc1cccc(OCCCN)c1-c1cc(Nc2cnc(C#N)cn2)n[nH]1,"viability, T/C",compound 0.00316 µM,93.2% and 79.9% and 100%
same,"viability, T/C",compound 0.01 µM,77.4% and 82.9% and 82.8%
same,"viability, T/C",compound 0.0316 µM,60.4% and 55.2% and 58.4%
same,"viability, T/C",compound 0.1 µM,55.1% and 55.9% and 59.1%
same,"viability, T/C",compound 0.316 µM,52% and 40.5% and 39.7%
same,"viability, T/C",compound 1 µM,26.3% and 36.1% and 36.3%
same,IC50,curve of compound,0.15 µM and 0.108 µM and 0.13 µM
